According to publication PMC7444556, “MrpH, a new class of metal-binding adhesin, requires zinc to mediate biofilm formation” (PLoS Pathogens, 2020):
Counter-ions that a name gives are not always drawn. Like-named read-outs stand apart in the source and are kept apart here.

Assays:
Type in all cases: binding
MrpH159 (MrpHntd) [1] = target: T1, MrpH159 (MrpHntd) (Proteus mirabilis, UniProt B4EUK6); conditions: 10 mM ligand, 10 uM protein, 24 mM NaCl, 6 mM HEPES pH 7.5, reference storage buffer 65.2±0.30 °C
T1 construct: gene mrpH; pEXP5-CT/TOPO (His-tag, Ni-NTA, no cleavage told); expressed in E. coli BL21-AI
T1 sequence (B4EUK6 entry or part of it): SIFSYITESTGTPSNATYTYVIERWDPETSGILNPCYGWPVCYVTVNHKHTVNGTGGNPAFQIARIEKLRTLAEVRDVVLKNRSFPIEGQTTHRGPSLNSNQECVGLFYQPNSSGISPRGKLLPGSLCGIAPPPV
From the text: thermal shift assay (SYPRO Orange) on MrpH159 (MrpHntd)

MrpH153 (MrpHntd) = target: T2, MrpH153 (MrpHntd) (Proteus mirabilis, UniProt B4EUK6); assay: thermal shift assay; conditions: 10 mM ammonium tartrate pH 7.0, 100 mM NaCl; reference 66.7 ± 0.6 °C in 10 mM HEPES pH 7.5
T2 construct: gene mrpH; C-terminal His-tag kept; expressed in E. coli
T2 sequence (B4EUK6 entry or part of it): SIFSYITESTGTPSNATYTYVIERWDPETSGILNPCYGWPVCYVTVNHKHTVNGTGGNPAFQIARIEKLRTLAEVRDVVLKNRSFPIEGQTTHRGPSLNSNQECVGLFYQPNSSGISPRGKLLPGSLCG

MrpH159 (MrpHntd) [2] = target: T1, MrpH159 (MrpHntd); assay: X-ray crystal structure, […] Å; conditions: side chain carboxyl ligates Zn2+; ligand not added, picked up during expression, assigned from electron density

SMILES | <Tm> (°C)^a (MrpH159 (MrpHntd) [1]; citrate pH not stated) | <Tm> (°C)^a (MrpH159 (MrpHntd) [1]) | Tm (MrpH153 (MrpHntd)) | X-ray crystal structure, 1.75 Å (MrpH159 (MrpHntd) [2])
O=C(O)CC(O)(CC(=O)O)C(=O)O [Sodium citrate] | 73.3±0.64 °C | – | – | –
O=C(O)C(O)C(O)C(=O)O (stereo not shown) [tartrate] | – | 80.1±0.70 °C | 78.5 ± 0.1 °C | –
CC(=O)O [Sodium acetate] | – | 76.3±0.56 °C | – | –
O=CO [Sodium formate] | – | 68.4±0.75 °C | – | –
N[C@@H](CCC(=O)O)C(=O)O [glutamic acid] | – | 73.1±0.21 °C | – | we have assigned glutamic acid as the bound ligand in the MrpH159 structure
